Measured values: patent US12605374B2, “Methods for drug screening and compositions useful for the inhibition of cell proliferation and/or cell survival” (The Brigham and Women's Hospital, Inc., priority 2019, dated 2026)

Tests used:
zebrafish embryos = assay: Respiration rate analysis (Seahorse XF24 oxygen consumption); assay type: in vivo; conditions: embryos from 5 hpf, versus DMSO control
Experimental: Analysis of embryonic respiration was performed using a Seahorse XF24 analyzer (Agilent). Embryos at 5 hours post fertilization were arrayed in E3 media at 3 per well in a 24-well standard Seahorse plate using an isolating mesh (as in Stackley et al^72). Each plate contained four replicates of each indicated compound of interest, as well as 4 control wells receiving the equivalent DMSO as contained in the indicated compound solution, and 4 wells with no embryos present to act as a baseline for oxygen content of the media. The sample baseline was read for 5 cycles (3 minute mix, 2 minute wait, 5 minute measure), then compounds were introduced in a single 40-cycle injection phase (3 minute mix, 2 minute wait, 5 minute measure). Measurement data were exported using Seahorse software (Agilent) and averaged over 3 experimental days.

Phospholipase A2 = Phospholipase A2 (Apis mellifera, UniProt P00630); assay type: biochemical
Sequence of Phospholipase A2 (P00630 34-167 limits assumed): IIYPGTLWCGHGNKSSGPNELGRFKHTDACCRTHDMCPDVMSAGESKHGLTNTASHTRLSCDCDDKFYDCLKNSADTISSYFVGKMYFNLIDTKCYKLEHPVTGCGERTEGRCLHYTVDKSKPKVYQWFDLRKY

Phospholipase C = molecular target: T1, Phospholipase C (Bacillus cereus, UniProt P09598); assay: In vitro Phospholipase C activity assay (EnzChek Direct kit); assay type: biochemical
T1 construct: purchased Thermo Fisher
T1 sequence (P09598 39-283 limits assumed): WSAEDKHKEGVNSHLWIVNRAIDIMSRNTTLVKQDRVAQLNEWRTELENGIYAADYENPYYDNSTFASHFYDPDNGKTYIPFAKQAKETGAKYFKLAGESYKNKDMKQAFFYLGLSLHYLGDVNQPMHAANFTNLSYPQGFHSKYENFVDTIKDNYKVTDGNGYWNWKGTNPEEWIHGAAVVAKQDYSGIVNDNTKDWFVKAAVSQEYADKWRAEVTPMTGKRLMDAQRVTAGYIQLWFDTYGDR
Experimental: Phospholipase D, C, and A2 activity were measured in vitro using commercial kits. For Phospholipase D, the Amplex Red Phospholipase D Assay Kit (Thermo Fisher) was used with Phospholipase D (Streptomyces chromofuscus—Enzo Life Sciences) added, and FIPI (4-Fluoro-N-(2-(4-(5-fluoro-1H-indol-1-yl)piperidin-1-yl)ethyl)benzamide, 5-Fluoro-2-indolyl deschlorohalopemide) hydrochloride (Sigma) acting as a positive control. To assay Phospholipase A2 activity, we used an EnzChek Phospholipase A2 Assay kit (Thermo Fisher) with Manoalide (Santa Cruz) as a positive control. To assay Phospholipase C activity, we used an EnzChek Direct Phospholipase C Assay Kit (Thermo Fisher) with D609 (Sigma) as a positive control. Tyrosinase activity was measured using a colorimetric Tyrosinase inhibitor screening kit (BioVision) with PTU as a positive control. For each assay, solutions were prepared in 96-well black clear bottom plates and read using a FLUOstar Omega plate reader at the wavelengths recommended by the respective manufacturers, with each measurement representing the average of at least 4 plate wells.

CCC1(CC)CCN(C(=O)c2cc(COc3ccc4ncccc4c3)on2)C1 [ChemBridge ID 65692859, 6-([3-[(3,3-diethylpyrrolidin-1-yl)carbonyl]isoxazol-5-yl]methoxy)quinoline]
respiration rate (oxygen consumption rate) (zebrafish embryos): consistent respiration rate
activity of phospholipase A2 (Phospholipase A2): increased activity
activity of phospholipase C (Phospholipase C): increased activity
